Structures are written as SMILES. Structures can show the parent of a compound that is named as a salt.

The target in experiment [1] is T1, human V1a receptor (Homo sapiens, UniProt P37288).
T1 construct: expressed in transfected cells; host or cells: CHO K1 (Chinese hamster ovary), also stably transfected with a modified aequorin
Briefly: Cellular in vitro assay for vasopressin receptor activity, V1a receptor cell line (aequorin luminescence). The settings on record: for IC50: CHO cell line transfected with human V1a receptor, [Arg8]-vasopressin at EC50 concentration, read-out: IC50 hV1a; for ratio IC50 hV2/hV1a: selectivity ratio of the IC50 values hV2/hV1a. The class given is cell-based. The procedure: (§1) B-1. Cellular In Vitro Assay for Determining Vasopressin Receptor Activity
(§2) The identification of agonists and antagonists of the V1a and V2 vasopressin receptors from humans, rats and dogs as well as the quantification of the activity of the compounds of the invention is carried out using recombinant cell lines. These cell lines originally derive from a hamster's ovary epithelial cell (Chinese Hamster Ovary, CHO K1, ATCC: American Type Culture Collection, Manassas, Va. 20108, USA). The test cell lines constitutively express the human, rat or dog V1a or V2 receptors. In case of the […] V1a receptors, cells are also stably transfected with a modified form of the calcium-sensitive photoproteins aequorin (human and rat V1a) or obelin (dog V1a), which, after reconstitution with the cofactor coelenterazine, emit light when there are increases in free calcium concentrations [Rizzuto R, Simpson A W, Brini M, Pozzan T, Nature 358, 325-327 (1992); Illarionov B A, Bondar V S, Illarionova V A, Vysotski E S, Gene 153 (2), 273-274 (1995)]. The resulting vasopressin receptor cells react to stimulation of the recombinantly expressed V1a receptors by intracellular release of calcium ions, which can be quantified by the resulting photoprotein luminescence. The Gs-coupled V2 receptors are stably transfected into cell lines expressing the gene for firefly luciferase under control of a CRE-responsible promoter. Activation of V2 receptors induces the activation of the CRE-responsive promoter via cAMP increase, thereby inducing the expression of firefly luciferase. The light emitted by photoproteins of V1a cell lines as well as the light emitted by firefly luciferase of V2 cell lines corresponds to the activation or inhibition of the respective vasopressin receptor. The bioluminescence of the cell lines is detected using a suitable luminometer [Milligan G, Marshall F, Rees S, Trends in Pharmacological Sciences 17, 235-237 (1996)].
Vasopressin V1a Receptor Cell Lines:
On the day before the assay, the cells are plated out in culture medium (DMEM/F12, 2% FCS, 2 mM glutamine, 10 mM HEPES, 5 μg/ml coelenterazine) in 384-well microtiter plates and kept in a cell incubator (96% humidity, 5% v/v CO2, 37° C.). On the day of the assay, test compounds in various concentrations are placed for 10 minutes in the wells of the microtiter plate before the agonist [Arg^8]-vasopressin at EC50 concentration is added. The resulting light signal is measured immediately in a luminometer.
(§3) Table 1A below lists individual IC50 values for the compounds of the invention (including racemic mixtures as well as separated enantiomers) that were obtained from cell lines transfected with the human V1a or V2 receptor: […]

The target of experiment [2] is T2, human V2 receptor (Homo sapiens, UniProt P30518).
T2 construct: expressed in transfected cells; host or cells: CHO K1 (Chinese hamster ovary) expressing firefly luciferase under a CRE-responsive promoter
As to the kind of experiment: Cellular in vitro assay for vasopressin receptor activity, V2 receptor cell line (CRE-luciferase). The class given is cell-based. The settings on record: CHO cell line transfected with human V2 receptor; [Arg8]-vasopressin at EC50 concentration; read-out: IC50 hV2. As for the experimental part: as §1, §2
Vasopressin V2 Receptor Cell Lines:
On the day before the assay, the cells are plated out in culture medium (DMEM/F12, 2% FCS, 2 mM glutamine, 10 mM HEPES) in 384-well microtiter plates and kept in a cell incubator (96% humidity, 5% v/v CO2, 37° C.). On the day of the assay, test compounds in various concentrations and the agonist [Arg^8]-vasopressin at EC50 concentration are added together to the wells, and plates are incubated for 3 hours in a cell incubator. Upon addition of the cell lysis reagent Triton™ and the substrate luciferin, luminescence of firefly luciferase is measured in a luminometer.
as §3

T2 sequence (P30518 whole entry): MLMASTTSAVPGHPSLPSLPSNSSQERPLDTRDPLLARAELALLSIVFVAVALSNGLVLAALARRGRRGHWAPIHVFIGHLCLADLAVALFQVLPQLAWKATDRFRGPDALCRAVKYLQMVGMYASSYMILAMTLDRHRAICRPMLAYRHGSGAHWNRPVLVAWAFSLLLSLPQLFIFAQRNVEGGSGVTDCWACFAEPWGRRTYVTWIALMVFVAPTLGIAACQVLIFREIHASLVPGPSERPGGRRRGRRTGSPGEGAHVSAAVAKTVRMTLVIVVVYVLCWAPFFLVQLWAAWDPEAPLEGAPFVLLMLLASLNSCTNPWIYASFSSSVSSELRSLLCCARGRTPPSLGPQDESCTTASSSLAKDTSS
T1 sequence (P37288 whole entry): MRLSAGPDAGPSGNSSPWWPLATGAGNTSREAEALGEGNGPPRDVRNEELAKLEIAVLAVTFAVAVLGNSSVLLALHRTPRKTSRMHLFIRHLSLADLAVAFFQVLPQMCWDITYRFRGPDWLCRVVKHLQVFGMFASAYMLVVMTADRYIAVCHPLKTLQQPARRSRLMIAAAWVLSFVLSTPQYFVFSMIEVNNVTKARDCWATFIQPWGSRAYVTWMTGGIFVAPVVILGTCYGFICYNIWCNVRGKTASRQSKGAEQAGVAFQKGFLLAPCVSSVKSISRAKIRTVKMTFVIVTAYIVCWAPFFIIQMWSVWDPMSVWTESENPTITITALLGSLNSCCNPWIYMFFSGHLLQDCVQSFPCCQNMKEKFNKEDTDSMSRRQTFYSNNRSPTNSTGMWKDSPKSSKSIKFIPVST

For orientation: IC50 means the point on the concentration scale where inhibition reaches its midpoint. Turning to `CC(C)(C)NC(=O)c1nc(Cn2nc(-c3ccc(Cl)cc3)n(C[C@H](O)C(F)(F)F)c2=O)nn1-c1ccccc1Cl` [Example 28, N-tert-Butyl-1-(2-chlorophenyl)-3-({3-(4-chlorophenyl)-5-oxo-4-[(2S)-3,3,3-trifluoro-2-hydroxypropyl]-4,5-dihydro-1H-1,2,4-triazol-1-yl}methyl)-1H-1,2,4-triazole-5-carboxamide], the IC50 in experiment [1] stood at 2.95 nM; in experiment [2], 26 nM. Moreover, the “ratio IC50 hV2/hV1a” value in experiment [1] came out at 8.8.

Regarding `CC(C)(C)NC(=O)c1nc(Cn2nc(-c3ccc(Cl)cc3)n(C[C@H](O)C(F)(F)F)c2=O)nn1-c1ncccc1OC(F)(F)F` [Example 29, N-tert-Butyl-3-({3-(4-chlorophenyl)-5-oxo-4-[(2S)-3,3,3-trifluoro-2-hydroxypropyl]-4,5-dihydro-1H-1,2,4-triazol-1-yl}methyl)-1-[3-(trifluoromethoxy)pyridin-2-yl]-1H-1,2,4-triazole-5-carboxamide], in experiment [1], the IC50 came out at 19.5 nM and the “ratio IC50 hV2/hV1a” value was 32.6. Also, the IC50 in experiment [2] was found to be 635 nM.

Regarding `O=C(c1nc(Cn2nc(-c3ccc(Cl)cc3)n(C[C@H](O)C(F)(F)F)c2=O)nn1-c1ccccc1Cl)N1CCOCC1` [Example 30, 5-(4-Chlorophenyl)-2-{[1-(2-chlorophenyl)-5-(morpholin-4-ylcarbonyl)-1H-1,2,4-triazol-3-yl]methyl}-4-[(2S)-3,3,3-trifluoro-2-hydroxypropyl]-2,4-dihydro-3H-1,2,4-triazol-3-one], in experiment [1], the IC50 is 1.01 nM and the “ratio IC50 hV2/hV1a” value is given as 29.0. The IC50 in experiment [2] was 29.3 nM.

With `O=C1CN(C(=O)c2nc(Cn3nc(-c4ccc(Cl)cc4)n(C[C@H](O)C(F)(F)F)c3=O)nn2-c2ccccc2Cl)CCN1` [Example 31, 4-{[1-(2-Chlorophenyl)-3-({3-(4-chlorophenyl)-5-oxo-4-[(2S)-3,3,3-trifluoro-2-hydroxypropyl]-4,5-dihydro-1H-1,2,4-triazol-1-yl}methyl)-1H-1,2,4-triazol-5-yl]carbonyl}piperazin-2-one], in experiment [1], the IC50 stood at 5.7 nM and the “ratio IC50 hV2/hV1a” value is 6.0. Besides, the IC50 in experiment [2] came to 34 nM.

Turning to `O=C(NCC1(O)CC1)c1nc(Cn2nc(-c3ccc(Cl)cc3)n(C[C@H](O)C(F)(F)F)c2=O)nn1-c1ccccc1Cl` [Example 32, 1-(2-Chlorophenyl)-3-({3-(4-chlorophenyl)-5-oxo-4-[(2S)-3,3,3-trifluoro-2-hydroxypropyl]-4,5-dihydro-1H-1,2,4-triazol-1-yl}methyl)-N-[(1-hydroxycyclopropyl)methyl]-1H-1,2,4-triazole-5-carboxamide], in experiment [1], the IC50 worked out at 1.2 nM and the “ratio IC50 hV2/hV1a” value stood at 6.2. Besides, the IC50 in experiment [2] is 7.43 nM.

As to `O=C(NC1CC1)c1nc(Cn2nc(-c3ccc(Cl)cc3)n(C[C@H](O)C(F)(F)F)c2=O)nn1-c1ccccc1Cl` [Example 33, 1-(2-Chlorophenyl)-3-({3-(4-chlorophenyl)-5-oxo-4-[(2S)-3,3,3-trifluoro-2-hydroxypropyl]-4,5-dihydro-1H-1,2,4-triazol-1-yl}methyl)-N-cyclopropyl-1H-1,2,4-triazole-5-carboxamide], the IC50 in experiment [1] is 1.32 nM; in experiment [2], 9.77 nM. For the same compound, the “ratio IC50 hV2/hV1a” value in experiment [1] is on record as 7.4.

Regarding `CNC(=O)c1nc(Cn2nc(-c3ccc(Cl)cc3)n(C[C@H](O)C(F)(F)F)c2=O)nn1-c1cccc(Cl)c1` [Example 34, 1-(3-Chlorophenyl)-3-({3-(4-chlorophenyl)-5-oxo-4-[(2S)-3,3,3-trifluoro-2-hydroxypropyl]-4,5-dihydro-1H-1,2,4-triazol-1-yl}methyl)-N-methyl-1H-1,2,4-triazole-5-carboxamide], the IC50 was determined as 34.6 nM in experiment [1] and 6.95 nM in experiment [2]. Further, the “ratio IC50 hV2/hV1a” value in experiment [1] was determined as 0.2.

For the compound `CN(C)C(=O)c1nc(Cn2nc(-c3ccc(Cl)cc3)n(C[C@H](O)C(F)(F)F)c2=O)nn1-c1cccc(Cl)c1` [Example 35, 1-(3-Chlorophenyl)-3-({3-(4-chlorophenyl)-5-oxo-4-[(2S)-3,3,3-trifluoro-2-hydroxypropyl]-4,5-dihydro-1H-1,2,4-triazol-1-yl}methyl)-N,N-dimethyl-1H-1,2,4-triazole-5-carboxamide], the figures for the IC50 in experiment [1] and in experiment [2] were 4.92 nM and 3.64 nM, respectively. In experiment [1], the “ratio IC50 hV2/hV1a” value was 0.7.

`O=C(c1nc(Cn2nc(-c3ccc(Cl)cc3)n(C[C@H](O)C(F)(F)F)c2=O)nn1-c1cccc(Cl)c1)N1CCOCC1` [Example 36, 5-(4-Chlorophenyl)-2-{[1-(3-chlorophenyl)-5-(morpholin-4-ylcarbonyl)-1H-1,2,4-triazol-3-yl]methyl}-4-[(2S)-3,3,3-trifluoro-2-hydroxypropyl]-2,4-dihydro-3H-1,2,4-triazol-3-one]: in experiment [1], the IC50 is 18.3 nM and the “ratio IC50 hV2/hV1a” value is 0.7. The IC50 in experiment [2] turned out to be 12.8 nM.

On to `COCCNC(=O)c1nc(Cn2nc(-c3ccc(Cl)cc3)n(C[C@H](O)C(F)(F)F)c2=O)nn1-c1cccc(F)c1` [Example 37, 3-({3-(4-Chlorophenyl)-5-oxo-4-[(2S)-3,3,3-trifluoro-2-hydroxypropyl]-4,5-dihydro-1H-1,2,4-triazol-1-yl}methyl)-1-(3-fluorophenyl)-N-(2-methoxyethyl)-1H-1,2,4-triazole-5-carboxamide], for which the IC50 worked out at 38.6 nM in experiment [1] and 23.4 nM in experiment [2]. Moreover, in experiment [1], the “ratio IC50 hV2/hV1a” value stood at 0.6.

`O=C(NCC(F)(F)F)c1nc(Cn2nc(-c3ccc(Cl)cc3)n(C[C@H](O)C(F)(F)F)c2=O)nn1-c1cccc(F)c1` [Example 38, 3-({3-(4-Chlorophenyl)-5-oxo-4-[(2S)-3,3,3-trifluoro-2-hydroxypropyl]-4,5-dihydro-1H-1,2,4-triazol-1-yl}methyl)-1-(3-fluorophenyl)-N-(2,2,2-trifluoroethyl)-1H-1,2,4-triazole-5-carboxamide]: in experiment [1], the IC50 was determined as 9.66 nM and the “ratio IC50 hV2/hV1a” value stood at 1.2. The IC50 in experiment [2] came to 11.4 nM.

With `O=C(NC1CC1)c1nc(Cn2nc(-c3ccc(Cl)cc3)n(C[C@H](O)C(F)(F)F)c2=O)nn1-c1cccc(F)c1` [Example 39, 3-({3-(4-Chlorophenyl)-5-oxo-4-[(2S)-3,3,3-trifluoro-2-hydroxypropyl]-4,5-dihydro-1H-1,2,4-triazol-1-yl}methyl)-N-cyclopropyl-1-(3-fluorophenyl)-1H-1,2,4-triazole-5-carboxamide], in experiment [1], the half-inhibitory concentration (IC50) worked out at 47 nM and the “ratio IC50 hV2/hV1a” value was 0.6. In experiment [2], the IC50 came to 28.1 nM.

Consider `CC(C)(C)OC(=O)N1CCN(C(=O)c2nc(Cn3nc(-c4ccc(Cl)cc4)n(C[C@H](O)C(F)(F)F)c3=O)nn2-c2cccc(F)c2)CC1` [Example 40, tert-Butyl 4-{[3-({3-(4-chlorophenyl)-5-oxo-4-[(2S)-3,3,3-trifluoro-2-hydroxypropyl]-4,5-dihydro-1H-1,2,4-triazol-1-yl}methyl)-1-(3-fluorophenyl)-1H-1,2,4-triazol-5-yl]carbonyl}piperazine-1-carboxylate], for which, in experiment [1], the IC50 is 131 nM and the “ratio IC50 hV2/hV1a” value is reported as 0.8. In experiment [2], the IC50 worked out at 98.7 nM.

On to `O=C(c1nc(Cn2nc(-c3ccc(Cl)cc3)n(C[C@H](O)C(F)(F)F)c2=O)nn1-c1cccc(F)c1)N1CCNCC1` [Example 41, 5-(4-Chlorophenyl)-2-{[1-(3-fluorophenyl)-5-(piperazin-1-ylcarbonyl)-1H-1,2,4-triazol-3-yl]methyl}-4-[(2S)-3,3,3-trifluoro-2-hydroxypropyl]-2,4-dihydro-3H-1,2,4-triazol-3-one trifluoroacetate], for which, in experiment [1], the IC50 came to 19.3 nM and the “ratio IC50 hV2/hV1a” value is 7.4. In addition, in experiment [2], the IC50 was 141 nM.

For the origin of these results see patent US11230540B2, “Substituted triazole derivatives and uses thereof” (Bayer Pharma Aktiengesellschaft, priority 2017, dated 2022).
